Source: PubChem BioAssay AID1963979 (Molecular Pharmacology Branch, DTP, NCI, 2024)

Tested on: 361931-004-R-J1-PDC multicell spheroid viability
Assay: Anticancer human tumor 361931-004-R-J1-PDC patient-derived colon adenocarcinoma cell line growth inhibition [PI3K]
Settings: for IC50: curve of first compound; for viability, T/C: stronger effect = lower value
How it was run: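 Three cell types, namely tumor cells, endothelial cells and mesenchymal stem cells, formed each spheroid. Combinations with four PI3K inhibitors were screened at clinically achievable concentrations decreasing by half-log, and spheroid viability was recorded.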

[1] = second compound 0.0316 µM, first compound 0.000316 µM
[2] = second compound 0.0316 µM, first compound 0.001 µM
[3] = second compound 0.0316 µM, first compound 0.00316 µM
[4] = second compound 0.0316 µM, first compound 0.01 µM
[5] = second compound 0.0316 µM, first compound 0.0316 µM
[6] = second compound 0.0316 µM, first compound 0.1 µM
[7] = second compound 0.1 µM, first compound 0.000316 µM
[8] = second compound 0.1 µM, first compound 0.001 µM
[9] = second compound 0.1 µM, first compound 0.00316 µM
[10] = second compound 0.1 µM, first compound 0.01 µM
[11] = second compound 0.1 µM, first compound 0.0316 µM
[12] = second compound 0.1 µM, first compound 0.1 µM
[13] = second compound 0.316 µM, first compound 0.000316 µM
[14] = second compound 0.316 µM, first compound 0.001 µM
[15] = second compound 0.316 µM, first compound 0.00316 µM
[16] = second compound 0.316 µM, first compound 0.01 µM
[17] = second compound 0.316 µM, first compound 0.0316 µM
[18] = second compound 0.316 µM, first compound 0.1 µM
[19] = second compound 1 µM, first compound 0.000316 µM
[20] = second compound 1 µM, first compound 0.001 µM
[21] = second compound 1 µM, first compound 0.00316 µM
[22] = second compound 1 µM, first compound 0.01 µM
[23] = second compound 1 µM, first compound 0.0316 µM
[24] = second compound 1 µM, first compound 0.1 µM
[25] = second compound 3.16 µM, first compound 0.000316 µM
[26] = second compound 3.16 µM, first compound 0.001 µM
[27] = second compound 3.16 µM, first compound 0.00316 µM
[28] = second compound 3.16 µM, first compound 0.01 µM
[29] = second compound 3.16 µM, first compound 0.0316 µM
[30] = second compound 3.16 µM, first compound 0.1 µM
[31] = second compound 10 µM, first compound 0.000316 µM
[32] = second compound 10 µM, first compound 0.001 µM
[33] = second compound 10 µM, first compound 0.00316 µM
[34] = second compound 10 µM, first compound 0.01 µM
[35] = second compound 10 µM, first compound 0.0316 µM
[36] = second compound 10 µM, first compound 0.1 µM
[37] = second compound 0.0316 µM, first compound 0.316 µM
[38] = second compound 0.0316 µM, first compound 1 µM
[39] = second compound 0.0316 µM, first compound 3.16 µM
[40] = second compound 0.0316 µM, first compound 10 µM
[41] = second compound 0.1 µM, first compound 0.316 µM
[42] = second compound 0.1 µM, first compound 1 µM
[43] = second compound 0.1 µM, first compound 3.16 µM
[44] = second compound 0.1 µM, first compound 10 µM
[45] = second compound 0.316 µM, first compound 0.316 µM
[46] = second compound 0.316 µM, first compound 1 µM
[47] = second compound 0.316 µM, first compound 3.16 µM
[48] = second compound 0.316 µM, first compound 10 µM
[49] = second compound 1 µM, first compound 0.316 µM
[50] = second compound 1 µM, first compound 1 µM
[51] = second compound 1 µM, first compound 3.16 µM
[52] = second compound 1 µM, first compound 10 µM
[53] = second compound 3.16 µM, first compound 0.316 µM
[54] = second compound 3.16 µM, first compound 1 µM
[55] = second compound 3.16 µM, first compound 3.16 µM
[56] = second compound 3.16 µM, first compound 10 µM
[57] = second compound 10 µM, first compound 0.316 µM
[58] = second compound 10 µM, first compound 1 µM
[59] = second compound 10 µM, first compound 3.16 µM
[60] = second compound 10 µM, first compound 10 µM
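Note: spheroids exposed to agents for seven days before readout.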

CC(=O)c1c(C)c2cnc(Nc3ccc(N4CCNCC4)cn3)nc2n(C2CCCC2)c1=O + Cc1nc(NC(=O)N2CCCC2C(N)=O)sc1-c1ccnc(C(C)(C)C(F)(F)F)c1
IC50 (second compound 0.0316 µM): > 100 nM
IC50 (second compound 0.1 µM): > 100 nM
IC50 (second compound 0.316 µM): > 100 nM
IC50 (second compound 1 µM): > 100 nM
IC50 (second compound 3.16 µM): > 100 nM
IC50 (second compound 10 µM): 56.4 nM
viability, T/C [1]: 110%
viability, T/C [2]: 105%
viability, T/C [3]: 101%
viability, T/C [4]: 98.7%
viability, T/C [5]: 99.6%
viability, T/C [6]: 78.2%
viability, T/C [7]: 109%
viability, T/C [8]: 106%
viability, T/C [9]: 96.8%
viability, T/C [10]: 94.8%
viability, T/C [11]: 90.7%
viability, T/C [12]: 81.5%
viability, T/C [13]: 106%
viability, T/C [14]: 96.6%
viability, T/C [15]: 104%
viability, T/C [16]: 97.8%
viability, T/C [17]: 83.1%
viability, T/C [18]: 83%
viability, T/C [19]: 97%
viability, T/C [20]: 93.3%
viability, T/C [21]: 84.9%
viability, T/C [22]: 91.9%
viability, T/C [23]: 90.2%
viability, T/C [24]: 65.2%
viability, T/C [25]: 80.7%
viability, T/C [26]: 70.6%
viability, T/C [27]: 76.5%
viability, T/C [28]: 77.7%
viability, T/C [29]: 65.7%
viability, T/C [30]: 52.6%
viability, T/C [31]: 66.7%
viability, T/C [32]: 75.9%
viability, T/C [33]: 65%
viability, T/C [34]: 58.4%
viability, T/C [35]: 56.5%
viability, T/C [36]: 45.1%

CC(C)n1nc(-c2ccc3oc(N)nc3c2)c2c(N)ncnc21 + Cc1nc(NC(=O)N2CCCC2C(N)=O)sc1-c1ccnc(C(C)(C)C(F)(F)F)c1
IC50 (second compound 0.0316 µM): > 100 nM
IC50 (second compound 0.1 µM): > 100 nM
IC50 (second compound 0.316 µM): 99.1 nM
IC50 (second compound 1 µM): 70.4 nM
IC50 (second compound 3.16 µM): 54.1 nM
IC50 (second compound 10 µM): 21.6 nM
viability, T/C [1]: 102%
viability, T/C [2]: 101%
viability, T/C [3]: 97.8%
viability, T/C [4]: 97.8%
viability, T/C [5]: 101%
viability, T/C [6]: 64.5%
viability, T/C [7]: 108%
viability, T/C [8]: 111%
viability, T/C [9]: 99.3%
viability, T/C [10]: 101%
viability, T/C [11]: 90.2%
viability, T/C [12]: 58.1%
viability, T/C [13]: 106%
viability, T/C [14]: 93.8%
viability, T/C [15]: 96.8%
viability, T/C [16]: 93.7%
viability, T/C [17]: 88.9%
viability, T/C [18]: 49%
viability, T/C [19]: 94.2%
viability, T/C [20]: 89%
viability, T/C [21]: 82.3%
viability, T/C [22]: 91.3%
viability, T/C [23]: 72.9%
viability, T/C [24]: 39.9%
viability, T/C [25]: 83.9%
viability, T/C [26]: 85.2%
viability, T/C [27]: 83.8%
viability, T/C [28]: 68.9%
viability, T/C [29]: 72.3%
viability, T/C [30]: 29.6%
viability, T/C [31]: 65%
viability, T/C [32]: 62.4%
viability, T/C [33]: 64%
viability, T/C [34]: 60%
viability, T/C [35]: 45%
viability, T/C [36]: 19.2%

CC1(C)CCC(CN2CCN(c3ccc(C(=O)NS(=O)(=O)c4ccc(NCC5CCOCC5)c([N+](=O)[O-])c4)c(Oc4cnc5[nH]ccc5c4)c3)CC2)=C(c2ccc(Cl)cc2)C1 + Cc1nc(NC(=O)N2CCCC2C(N)=O)sc1-c1ccnc(C(C)(C)C(F)(F)F)c1
IC50 (second compound 0.0316 µM): 4140 nM
IC50 (second compound 0.1 µM): 4300 nM
IC50 (second compound 0.316 µM): 4190 nM
IC50 (second compound 1 µM): 3890 nM
IC50 (second compound 3.16 µM): 2710 nM
IC50 (second compound 10 µM): 1520 nM
viability, T/C [5]: 108%
viability, T/C [6]: 100%
viability, T/C [37]: 111%
viability, T/C [38]: 99.7%
viability, T/C [39]: 64.9%
viability, T/C [40]: 1.71%
viability, T/C [11]: 106%
viability, T/C [12]: 100%
viability, T/C [41]: 108%
viability, T/C [42]: 99.1%
viability, T/C [43]: 67.8%
viability, T/C [44]: 1.27%
viability, T/C [17]: 104%
viability, T/C [18]: 107%
viability, T/C [45]: 96%
viability, T/C [46]: 93%
viability, T/C [47]: 65.6%
viability, T/C [48]: 1.32%
viability, T/C [23]: 87.1%
viability, T/C [24]: 102%
viability, T/C [49]: 84.8%
viability, T/C [50]: 83.1%
viability, T/C [51]: 61.2%
viability, T/C [52]: 0.97%
viability, T/C [29]: 85.7%
viability, T/C [30]: 77%
viability, T/C [53]: 78.2%
viability, T/C [54]: 80%
viability, T/C [55]: 45.4%
viability, T/C [56]: 1.07%
viability, T/C [35]: 65.1%
viability, T/C [36]: 67.7%
viability, T/C [57]: 60.3%
viability, T/C [58]: 62.2%
viability, T/C [59]: 29%
viability, T/C [60]: 1.43%

CCCS(=O)(=O)Nc1ccc(F)c(C(=O)c2c[nH]c3ncc(-c4ccc(Cl)cc4)cc23)c1F + Cc1nc(NC(=O)N2CCCC2C(N)=O)sc1-c1ccnc(C(C)(C)C(F)(F)F)c1
IC50 (second compound 0.0316 µM): 4920 nM
IC50 (second compound 0.1 µM): 5570 nM
IC50 (second compound 0.316 µM): 5010 nM
IC50 (second compound 1 µM): 3500 nM
IC50 (second compound 3.16 µM): 2090 nM
IC50 (second compound 10 µM): 624 nM
viability, T/C [5]: 96.2%
viability, T/C [6]: 101%
viability, T/C [37]: 88.6%
viability, T/C [38]: 99.7%
viability, T/C [39]: 78.4%
viability, T/C [40]: 4.57%
viability, T/C [11]: 107%
viability, T/C [12]: 86.1%
viability, T/C [41]: 87.2%
viability, T/C [42]: 91.6%
viability, T/C [43]: 95.5%
viability, T/C [44]: 4.97%
viability, T/C [17]: 94.3%
viability, T/C [18]: 92.1%
viability, T/C [45]: 80.7%
viability, T/C [46]: 86.9%
viability, T/C [47]: 80.5%
viability, T/C [48]: 4.14%
viability, T/C [23]: 89.2%
viability, T/C [24]: 88.8%
viability, T/C [49]: 75.9%
viability, T/C [50]: 73.3%
viability, T/C [51]: 57.3%
viability, T/C [52]: 3.96%
viability, T/C [29]: 77.1%
viability, T/C [30]: 75.2%
viability, T/C [53]: 60.3%
viability, T/C [54]: 59.1%
viability, T/C [55]: 48.7%
viability, T/C [56]: 3.13%
viability, T/C [35]: 70.6%
viability, T/C [36]: 68.6%
viability, T/C [57]: 54.2%
viability, T/C [58]: 43.5%
viability, T/C [59]: 30.7%
viability, T/C [60]: 1.96%

CNC(=O)c1ccc(N2C(=S)N(c3ccc(C#N)c(C(F)(F)F)c3)C(=O)C2(C)C)cc1F + Cc1nc(NC(=O)N2CCCC2C(N)=O)sc1-c1ccnc(C(C)(C)C(F)(F)F)c1
IC50 (second compound 0.0316 µM): > 10000 nM
IC50 (second compound 0.1 µM): > 10000 nM
IC50 (second compound 0.316 µM): > 10000 nM
IC50 (second compound 1 µM): > 10000 nM
IC50 (second compound 3.16 µM): > 10000 nM
IC50 (second compound 10 µM): > 10000 nM
viability, T/C [5]: 113%
viability, T/C [6]: 101%
viability, T/C [37]: 91%
viability, T/C [38]: 90.8%
viability, T/C [39]: 98%
viability, T/C [40]: 99.6%
viability, T/C [11]: 106%
viability, T/C [12]: 101%
viability, T/C [41]: 87.4%
viability, T/C [42]: 94.4%
viability, T/C [43]: 93.3%
viability, T/C [44]: 86.6%
viability, T/C [17]: 99.2%
viability, T/C [18]: 90.8%
viability, T/C [45]: 100%
viability, T/C [46]: 104%
viability, T/C [47]: 104%
viability, T/C [48]: 95.8%
viability, T/C [23]: 94.1%
viability, T/C [24]: 93.5%
viability, T/C [49]: 80%
viability, T/C [50]: 94.5%
viability, T/C [51]: 94.1%
viability, T/C [52]: 85.6%
viability, T/C [29]: 83.2%
viability, T/C [30]: 82.9%
viability, T/C [53]: 91.3%
viability, T/C [54]: 84.2%
viability, T/C [55]: 98%
viability, T/C [56]: 70.3%
viability, T/C [35]: 70.2%
viability, T/C [36]: 67.1%
viability, T/C [57]: 59.3%
viability, T/C [58]: 69.1%
viability, T/C [59]: 76.1%
viability, T/C [60]: 45.2%
